Columns and labels:
[1] = target: T1, Brain Acetylcholinesterase (Rattus norvegicus, UniProt P37136); assay: In Vitro Inhibition of Acetylcholinesterase Activity in Rat Striatum (modified Ellman method); format: biochemical; conditions: rat striatum homogenate, read-out: % Inhibition @ Dose
T1 construct: corpora striata dissected free, weighed and homogenized in 19 volumes; from tissue; host or cells: rat corpora striata homogenate (male Wistar rats)
From the text: Cholinesterases are found throughout the body, both in the brain and in serum. However, only brain acetylcholinesterase (AChE) distribution is correlated with central cholinergic innervation. […] We have determined in vitro inhibition of acetylcholinesterase activity in rat striatum according to the method described below.
In Vitro Inhibition of Acetylcholinesterase Activity in Rat Striatum
Acetylcholinesterase (AChE), which is sometimes called true or specific cholinesterase, is found in nerve cells, skeletal muscle, smooth muscle, various glands and red blood cells. AChE may be distinguished from other cholinesterases by substrate and inhibitor specificities and by regional distribution.
It is generally accepted that the physiological role of AChE is the rapid hydrolysis and inactivation of acetylcholine. […]
• A. Reagents- • 1. […] If active, IC₅₀ values are determined from the inhibitory activity of subsequent concentrations. • B. Tissue Preparation - Male Wistar rats are decapitated, brains rapidly removed, corpora striata dissected free, weighed and homogenized in 19 volumes (approximately 7 mg protein/ml) of 0.05 M phosphate buffer, pH 7.2, using a Potter-Elvehjem homogenizer. […] Assay Enzyme activity is measured with the Beckman DU-50 spectrophotometer. […] This program also calculates the rate of absorbance change for each cuvette. […]

mice = assay: Dark Avoidance Assay (reversal of scopolamine-induced memory deficit); format: in vivo; conditions: s.c.
Experimental: In this assay mice are tested for their ability to remember an unpleasant stimulus for a period of 24 hours. A mouse is placed in a chamber that contains a dark compartment; a strong incandescent light drives it to the dark compartment, where an electric shock is administered through metal plates on the floor. The animal is removed from the testing apparatus and tested again, 24 hours later, for the ability to remember the electric shock.
If scopolamine, an anticholinergic that is known to cause memory impairment, is administered before an animal's initial exposure to the test chamber, the animal re-enters the dark compartment shortly after being placed in the test chamber 24 hours later. This effect of scopolamine is blocked by an active test compound, resulting in a greater interval before re-entry into the dark compartment.
The results for an active compound are expressed as the percent of a group of animals in which the effect of scopolamine is blocked, as manifested by an increased interval between being placed in the test chamber and re-entering the dark compartment.

T1 sequence (P37136 32-614): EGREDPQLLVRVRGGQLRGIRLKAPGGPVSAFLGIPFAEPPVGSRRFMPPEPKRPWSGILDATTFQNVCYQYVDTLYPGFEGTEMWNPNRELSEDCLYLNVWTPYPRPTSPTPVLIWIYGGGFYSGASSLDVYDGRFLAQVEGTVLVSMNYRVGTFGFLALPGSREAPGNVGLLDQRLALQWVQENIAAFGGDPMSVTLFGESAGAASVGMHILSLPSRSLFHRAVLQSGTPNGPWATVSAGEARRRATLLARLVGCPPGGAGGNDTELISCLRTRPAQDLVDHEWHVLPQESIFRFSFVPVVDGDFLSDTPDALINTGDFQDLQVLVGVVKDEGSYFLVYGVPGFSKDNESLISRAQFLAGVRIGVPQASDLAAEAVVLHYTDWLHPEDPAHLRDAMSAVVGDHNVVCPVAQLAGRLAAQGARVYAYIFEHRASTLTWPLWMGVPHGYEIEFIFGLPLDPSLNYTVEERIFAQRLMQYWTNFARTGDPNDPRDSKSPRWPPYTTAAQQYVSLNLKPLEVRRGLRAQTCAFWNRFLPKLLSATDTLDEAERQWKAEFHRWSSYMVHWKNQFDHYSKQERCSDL

## Oc1ccc2c(ccn2Cc2ccncc2)c1 [1-(4-pyridinylmethyl)-1H-indol-5-ol, 1-(4-Pyridinylmethyl)-1H-indol-5-ol]
[1]; 100 µM
  inhibition at 100 µM: 24%

## CN1CCC2(C)c3cc(O)ccc3N(C)C12 (stereo not shown) [Eseroline]
[1]; 6.4 µM
  inhibition at 6.4 µM: 50%

## Nc1c2c(nc3ccccc13)CCCC2 [Tacrine]
mice; dose 0.63 mg/kg of body weight
  % of Animals with Scopolamine-Induced Memory Deficit Reversal: 13%

## CC[C@@H]1C(=O)OC[C@@H]1Cc1cncn1C [Pilocarpine]
mice; dose 5.0 mg/kg of body weight
  % of Animals with Scopolamine-Induced Memory Deficit Reversal: 13%

## c1ccc2c(c1)ccn2Cc1ccncc1 [1-(4-pyridinylmethyl)-1H-indole, 1-(4-Pyridinylmethyl)-1H-indole]
mice; dose 0.3 mg/kg of body weight
  % of Animals with Scopolamine-Induced Memory Deficit Reversal: 33%
mice; dose 1.0 mg/kg of body weight
  % of Animals with Scopolamine-Induced Memory Deficit Reversal: 20%

## CCCC(c1ccncc1)n1ccc2ccccc21 (stereo not shown) [1-[1-(4-pyridinyl)-butyl]-1H-indole, 1-[1-(4-Pyridinyl)butyl]-1H-indole]
mice; dose 0.3 mg/kg of body weight
  % of Animals with Scopolamine-Induced Memory Deficit Reversal: 20%

Reference: patent EP0471296B1, “1-(Pyridinylalkyl)-1H-indoles, indolines and related analogs” (HOECHST-ROUSSEL PHARMACEUTICALS INCORPORATED, priority 1990, dated 1992)
